Results as given in article PMC7600679, “Benzoxazole-Based Metal Complexes to Reverse Multidrug Resistance in Bacteria” (Antibiotics, 2020).

Tested on: S. aureus ATCC 25923
Assay: Anti-biofilm effect (crystal violet)
Assay type: cell-based, Staphylococcus aureus
Conditions: compound at ¼ MIC, 48 h, 30 °C, vs untreated biofilm mass
Protocol: The effect of ligands and their metal complexes on biofilm formation was evaluated on the reference S. aureus ATCC 25923 strain. The biofilm inhibition (%) was calculated based on the mean of absorbance units.
The biofilm production of the S. aureus ATCC 25923 strain was studied in 96-well plates using TSB broth in the presence of compounds. […] The final volume was 200 μL in each well. The samples were incubated at 30 °C for 48 h with gentle agitation (100 rpm). Then, the medium was removed, and the plate was washed with tap water to discard unattached cells. 200 μL CV (0.1% [v/v]) was added to the wells and incubated for 15 min at room temperature. CV was removed from the wells and the plate was washed again with tap water. 200 μL 70% ethanol was transferred to each well and the biofilm formation was determined by measuring the OD at 600 nm using Multiscan EX ELISA reader (Thermo Labsystems, Cheshire, CT, USA). The anti-biofilm effect of compounds was determined as the percentage (%) of decrease in biofilm formation. The assay was repeated a minimum of three times. The results were calculated using a t-test and p-values of <0.001 were considered significant.

Structure (SMILES)	Biofilm inhibition [%]
O=C(Cc1nc2ccccc2o1)C(F)F [Compound 3]	16.4
[Fe+3].[O-]C(=Cc1nc2ccccc2o1)C(F)(F)F.[O-]C(=Cc1nc2ccccc2o1)C(F)(F)F.[O-]C(=Cc1nc2ccccc2o1)C(F)(F)F [Compound 12]	75
